Measurements: patent publication US20240124409A1, “GUAIANOLIDE SESQUITERPENE LACTONE DERIVATIVES AND PHARMACEUTICAL USE THEREOF” (NANJING UNIVERSITY OF CHINESE MEDICINE, priority 2021, published 2024)
Values after ≈ are worked out from the molar mass of the structure shown.

Key:
[1] = Stability in artificial gastric juice environment (HPLC); conditions: 37° C.
Procedure: The samples were dissolved in 500 μL of chromatographic methanol, into which were added 1500 μL of artificial gastric juice, mixed well and then dissolved completely by ultrasound. 50 μL of the above solutions were aspirated precisely, diluted by adding 200 μL of chromatographic methanol, filtered and analyzed by HPLC, wherein the HPLC analysis conditions were mobile phase: 65% methanol -35% water, flow rate: 0.8 mL/min, and column temperature: 25° C., and the initial peak areas were recorded. The above solutions were placed on a constant temperature water bath at 37° C., sampled at 8 h, 16 h and 24 h respectively, and analyzed by HPLC. By calculating the peak areas respectively, the stability data of the corresponding samples in artificial gastric juice environment at 8 h, 16 h and 24 h can be obtained.

[2] = molecular target: T1, NLRP3 inflammasome (Mus musculus, UniProt Q8R4B8); test: Inhibition of LPS and ATP induced NLRP3 inflammasome activation in BMDMs (IL-1β level); format: cell-based, C57BL/6 mice; conditions: read-out: IC50, inhibitory effect on activation of NLRP3 inflammasome
T1 construct: endogenous in cells; host or cells: primary bone marrow-derived macrophages (BMDMs) from female C57BL/6 mice, differentiated with rmM-CSF
T1 sequence (Q8R4B8 whole entry): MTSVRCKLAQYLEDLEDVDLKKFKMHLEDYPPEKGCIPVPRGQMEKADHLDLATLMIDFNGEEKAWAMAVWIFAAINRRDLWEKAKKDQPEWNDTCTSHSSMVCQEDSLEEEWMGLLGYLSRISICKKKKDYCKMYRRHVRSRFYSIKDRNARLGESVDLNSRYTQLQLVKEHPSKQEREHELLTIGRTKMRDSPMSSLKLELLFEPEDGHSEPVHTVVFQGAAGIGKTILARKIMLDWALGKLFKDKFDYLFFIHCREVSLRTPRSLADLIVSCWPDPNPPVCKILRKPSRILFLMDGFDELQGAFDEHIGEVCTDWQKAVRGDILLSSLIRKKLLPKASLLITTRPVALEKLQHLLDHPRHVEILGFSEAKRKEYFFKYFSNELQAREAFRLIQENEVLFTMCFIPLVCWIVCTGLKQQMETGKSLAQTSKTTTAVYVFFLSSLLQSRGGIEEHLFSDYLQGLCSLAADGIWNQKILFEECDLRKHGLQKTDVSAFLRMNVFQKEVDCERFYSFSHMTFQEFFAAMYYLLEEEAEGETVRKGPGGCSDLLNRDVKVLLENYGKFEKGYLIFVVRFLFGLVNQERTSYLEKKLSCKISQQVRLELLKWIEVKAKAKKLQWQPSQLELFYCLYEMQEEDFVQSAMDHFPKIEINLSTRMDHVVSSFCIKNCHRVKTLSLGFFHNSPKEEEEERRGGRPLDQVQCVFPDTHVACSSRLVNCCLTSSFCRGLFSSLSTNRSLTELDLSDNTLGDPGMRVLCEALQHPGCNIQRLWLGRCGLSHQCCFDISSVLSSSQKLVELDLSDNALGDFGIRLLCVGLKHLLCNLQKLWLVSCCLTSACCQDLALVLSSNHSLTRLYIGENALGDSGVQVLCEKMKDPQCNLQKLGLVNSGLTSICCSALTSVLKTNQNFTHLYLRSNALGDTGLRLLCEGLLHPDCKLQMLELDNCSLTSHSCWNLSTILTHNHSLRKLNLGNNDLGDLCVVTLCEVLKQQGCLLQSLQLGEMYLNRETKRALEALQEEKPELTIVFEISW
Excerpt: NLRP3 is an important pattern recognition receptor, that can form the NLRP3 inflammasome through the adaptor ASC and pro-caspase-1. After activation, the NLRP3 inflammasome can mediate the activation of caspase-1, thus promoting the maturation and secretion of IL-1β. In order to determine whether the prepared guaianolide sesquiterpene lactone Compounds 1-8 can inhibit the activation of the NLRP3 inflammasome, we used LPS and ATP to induce the activation of the NLRP3 inflammasome, and observed the effects of Compounds 1-8 on the IL-1β level caused by NLRP3 inflammasome activation.
C57BL/6 mice were sacrificed by cervical dislocation, and then soaked in 75% alcohol for 5-10 min. Subsequently, two hind legs of the mice were cut off with scissors. Next, the meat was removed, and the leg bones were left, which were then washed with PBS for three times. After severing the bone at both ends, a sterile syringe filled with cold serum-free RPMI 1640 medium was used to flush the bone marrow into a 15 mL centrifuge tube. Subsequently, the bone marrow was centrifuged at 1500 rpm for 5 min, and the supernatant was discarded. The residue was resuspended with 1 mL of erythrocyte lysate, blown repeatedly, and then stood for 7 min to lyse erythrocytes. After centrifugation at 1500 rpm for 5 min, the supernatant was discarded. The residue was resuspended with the RPMI 1640 medium containing 100 ng/ml of rmM-CSF, and then transferred to a 6-well culture plate for culture.
The BMDMs were seeded on 6-well cell culture plates and then treated with 100 ng/ml ultrapure LPS for 3 h. […] Subsequently, the cells were stimulated with 5 mM ATP for 45 min. The supernatants were collected into 1.5 mL EP tubes for subsequent detection of IL-1β level.

[3] = Solubility test in water; format: physicochemical; conditions: thermodynamic from solid; deionized water, 37° C.
Procedure: Saturated solutions were formulated, filtered and analyzed by HPLC with a sample volume of 1 μL, 3 μL, 5 μL, 10 μL, 15 µL and 20 μL sequentially, and the standard curves of the corresponding compounds were drawn.
[…] of the above compounds were formulated, dissolved by ultrasound for 4 h, and placed on a water bath at 37° C. to stand for 1 h. The resulting unsaturated solutions were centrifuged. 30 μL of supernatants were removed, diluted by adding 200 μL of deionized water, and then filtered.

[4] = system: mouse acute liver injury model; test: Mouse acute liver injury model (CCl4); format: in vivo, C57BL/6 mice
Procedure: The mice were randomly divided into 8 groups, one of which was randomly selected as the normal group, and the other 7 groups were the model group, the parent drug 1 (0.4 and 4 μmol/kg), the hydrochloride 22 (4 μmol/kg), and the fumarate 23 (0.4 and 4 μmol/kg) groups, respectively, with 6 mice in each group. In addition to the normal group injected with 10 mL olive oil/kg, the other mice were injected intraperitoneally with 0.5 mL CCl4+9.5 mL olive oil/kg weight, i.e., the ratio of CCl4 to olive oil was 1:19. […] The mice in the normal group and model group were administered intragastrically the same volume of the solvent 0.5% CMC-Na.
1 h after the last administration, blood was collected from the venous plexus of fundus oculi, stood at room temperature for 2 h, and centrifuged at 3000 rpm for 20 min. The serum was aspirated, aliquoted, and frozen at −70° C. for subsequent use. After blood collection, the mice were sacrificed by cervical dislocation, and the abdominal cavity was opened. The livers were taken out, and rinsed twice with pre-cooled PBS. The liver left lobe tissues of the mice were cut, and fixed with 4% paraformaldehyde for 24-48 h. The remaining tissues were frozen at −70° C. for subsequent use.
μL of each sample was taken for experiments. The levels of AST and ALT in the serum of mice were detected according to the operation manual. The absorbance value was detected at the wavelength of 510 nm by a microplate reader, and the sample concentration (U/L) was calculated according to the standard curve.
The extraction method of total RNA from tissues, cDNA synthesis and the PCR amplification method are the same as those in Example 4.

| Non-degradation percentage at 8 h [1] | Non-degradation percentage at 16 h [1] | Non-degradation percentage at 24 h [1] | IC50 [2] | solubility [3] | Compound | Acta2 mRNA expression ([4]; liver, 400 μmol/kg) | Col1a1 mRNA expression ([4]; liver, 400 μmol/kg) | Tgfb1 mRNA expression ([4]; liver, 400 μmol/kg) | ALT ([4]; serum, 4 μmol/kg) | AST ([4]; serum, 400 μmol/kg) |
| --- | --- | --- | --- | --- | --- | --- | --- | --- | --- | --- |
| 90.92% | 86.62% | 78.26% | < 40 nM | 0.0008 mg/mL (≈ 0.00327 mM) | C=C1C(=O)O[C@@H]2[C@H]3C(C)=CC[C@]34C[C@]4(C)CC[C@@H]12 [Compound 2] | – | – | – | – | – |
| 99.98% | 99.87% | 97.77% | < 40 nM | 0.0355 mg/mL (≈ 0.121 mM) | C=C1C(=O)O[C@H]2[C@H]1CC[C@@]1(C)C[C@]13C[C@@H](O)[C@@](C)(OC)[C@H]23 [Compound 3] | – | – | – | – | – |
| 98.15% | 96.84% | 96.21% | < 40 nM | 0.101 mg/mL (≈ 0.362 mM) | C=C1C(=O)O[C@H]2[C@H]1CC[C@@]1(C)C[C@]13C[C@@H](O)[C@@](C)(O)[C@H]23 [Compound 4] | – | – | – | – | – |
| 99.91% | 99.85% | 99.84% | < 40 nM | 0.0259 mg/mL (≈ 0.0979 mM) | C=C1C(=O)O[C@@H]2[C@@H]3[C@]4(CC[C@@]3(C)F)C[C@]4(C)CC[C@@H]12 [Compound 5] | – | – | – | – | – |
| 99.89% | 96.80% | 95.72% | < 40 nM | 0.00258 mg/mL (≈ 0.0106 mM) | C=C1C(=O)O[C@@H]2C3=C(C)CC[C@]34C[C@]4(C)CC[C@@H]12 [Compound 6] | – | – | – | – | – |
| 99.31% | 97.85% | 97.65% | < 40 nM | 0.0177 mg/mL (≈ 0.0555 mM) | C=C1C(=O)O[C@@H]2[C@@H]3[C@]4(CC[C@@]3(C)OC(=O)CC)C[C@]4(C)CC[C@@H]12 [Compound 7] | – | – | – | – | – |
| 98.36% | 95.58% | 94.08% | < 40 nM | 0.00852 mg/mL (≈ 0.0308 mM) | C=C1C(=O)O[C@@H]2[C@@H]3[C@]4(CC[C@@]3(C)OC)C[C@]4(C)CC[C@@H]12 [Compound 8] | – | – | – | – | – |
| – | – | – | 40 to 80 nM | 96.6 mg/mL (≈ 334 mM) | CC1=CC[C@@]23C[C@]2(C)CC[C@@H]2[C@H](OC(=O)[C@H]2CN(C)C)[C@@H]13 [Compound 24] | – | – | – | – | – |
| – | – | – | 40 to 80 nM | 221 mg/mL (≈ 654 mM) | CO[C@]1(C)[C@H](O)C[C@@]23C[C@]2(C)CC[C@@H]2[C@H](OC(=O)[C@H]2CN(C)C)[C@@H]13 [Compound 25] | – | – | – | – | – |
| – | – | – | 40 to 80 nM | 248 mg/mL (≈ 768 mM) | CN(C)C[C@@H]1C(=O)O[C@H]2[C@H]1CC[C@@]1(C)C[C@]13C[C@@H](O)[C@@](C)(O)[C@H]23 [Compound 26] | – | – | – | – | – |
| – | – | – | 40 to 80 nM | 208 mg/mL (≈ 674 mM) | CN(C)C[C@@H]1C(=O)O[C@H]2[C@H]1CC[C@@]1(C)C[C@]13CC[C@@](C)(F)[C@H]23 [Compound 27] | – | – | – | – | – |
| – | – | – | 80 to 100 nM | 120 mg/mL (≈ 416 mM) | CC1=CC[C@@]23C[C@]2(C)CC[C@H]2[C@H](CN(C)C)C(=O)O[C@@H]2C13 (some centres unmarked) [Compound 28] | – | – | – | – | – |
| – | – | – | 40 to 80 nM | 195 mg/mL (≈ 535 mM) | CCC(=O)O[C@]1(C)CC[C@@]23C[C@]2(C)CC[C@@H]2[C@H](OC(=O)[C@H]2CN(C)C)[C@H]31 [Compound 29] | – | – | – | – | – |
| – | – | – | – | – | COc1cc(C2Oc3cc([C@H]4Oc5cc(O)cc(O)c5C(=O)[C@@H]4O)ccc3OC2CO)ccc1O (some centres unmarked) [Silybin, reference compound] | 2.91 | 1.84 | 1.11 | 121.58 U/L | 301.45 U/L |
| 68.91% | 65.42% | 57.86% | – | 44.8 mg/mL (≈ 195 mM) | C=C1CC[C@H]2C(=C)CC[C@H]3C(=C)C(=O)O[C@@H]3[C@@H]12 [dehydrocostus lactone, reference compound] | – | – | – | – | – |
